Source: patent US20150165097A1, “HARDENABLE ANTIMICROBIAL COMPOSITION” (priority 2012, published 2015)
Where a name gives a salt, the structure may show the parent alone. Read-outs that look alike come from different tables or passages of the source.

Experiments:
[1] = Solubility / solution appearance of antimicrobial agent in vehicle before addition of PVC
Description: The antimicrobial agent was added to a small vial. For samples containing CPC or OCT, benzyl alcohol (BzOH, available from Mallinkrodt Baker Inc. of Phillipsburg, N.J.), was also added and the mixture was vortexed. Zinc octoate (ZnOct) was then added to the mixture. In a separate jar, a batch mixture containing DINCH, ESO and di-IDPP was prepared; the solution was allowed to roll until a clear/colorless mixture was obtained with no mixing lines. In a separate jar, the appropriate amount of batch mixture was added into the vial containing the antimicrobial agent, solvent, and zinc octoate (ZnOct). The mixture was vortexed and the solution was allowed to roll at a setting of 60 rpm until a determination was made as to whether or not the antimicrobial was dissolving in the solution.
The BKC was dispensed into a 25 mL vial. To this was added the DINCH, TIDP, and ZnOct in that order. The vial was then capped and vortexed for several seconds, and then placed on rollers set at 65 rpm in order to promote the dissolution (if possible) of the BKC. […]
The antimicrobial agents assessed were BKC, BZT, OCT, PCMX, POEtOH, and PHMB. The amount of each antimicrobial agent added was calculated to be equal to the same number of moles of BKC at 1.5 wt % in the plastisol formulation. […]

[2] = Solubility of antimicrobial agent in plasticizer alone (Example 1); assay type: physicochemical
Description: The solubility of three different antimicrobial agents: benzalkonium chloride (BKC), octenidine dihydrochloride (OCT), and polyhexamethylene biguanide (PHMB); in various plasticizers was evaluated by the following procedure. The antimicrobial agent was added to a small vial; to this, the plasticizer of interest was added. […] In each solution, 1.5% wt/wt of one antimicrobial agent (BKC, OCT, or PHMB) was combined with 98.5% wt/wt of one of each of the following plasticizers: DINCH, acetyl tributyl citrate, trioctyl trimellitate, dioctyl adipate, or polyester adipate.

[3] = Solubility of antimicrobial agent in plasticizer with heat stabilizer package (Example 2), judged visually; details: 1.1 wt %; ESO, DDPP and ZnOct present
Description: To the vial containing the plasticizer and antimicrobial, the appropriate amount (see below) of a master batch solution of PVC heat stabilizer was added. The master batch solution of PVC heat stabilizer included: epoxidized soybean oil (ESO), decyl diphenyl Phosphite (DDPP), and zinc octoate (ZnOct). The solution was allowed to roll overnight at ambient temperature at 60 rpm to determine if the antimicrobial was soluble in that system. Samples were evaluated visually for solubility. […] Samples that were clear were judged to have the cationic antimicrobial completely soluble. Those that were hazy were judged to have the antimicrobial partially soluble. Those that were opaque white were substantially insoluble.

Compound	Solubility of BKC in DINCH, TIDP vehicle ([1]; Example 4, in the absence of ZnOct)	Solubility in plasticizer [2]	Solubility in DINCH, ATC, TOTM, DOA and PEA with heat stabilizing package [3]	Solubility in MESAMOLL ([1]; Example 8, BZT: at low concentrations of ZnOct, OCT: even with increasing amounts of ZnOct)	Solubility in plasticizer ([2]; 1.5% wt/wt antimicrobial agent in 98.5% wt/wt DINCH, acetyl tributyl citrate, trioctyl trimellitate, dioctyl adipate or polyester adipate, rolled 16 hours at 60 rpm)
CCCCCCCCCCCCCC[N+](C)(C)Cc1ccccc1.[Cl-] [BKC, Benzyl dimethyl tetradecyl ammonium chloride]	much less solubility	none of these antimicrobial agents were soluble	soluble		
CCCCCCCCN=c1ccn(CCCCCCCCCCn2ccc(=NCCCCCCCC)cc2)cc1 [OCT, Octenidine dihydrochloride]		none of these antimicrobial agents were soluble	not soluble		
OCCOc1ccccc1 [POEtOH, 2-phenoxyethanol]				well below their solubility limits	
Polyhexamethylene biguanide [PHMB]			not soluble		none of these antimicrobial agents were soluble
